Laboratory results as given in patent US9132130B2, “Purine derivative and antitumor agent using same” (ZENYAKU KOGYO KABUSHIKI KAISHA, priority 2009, dated 2015).
Structures can show the parent of a compound that is named as a salt.

Assays:
[1] = tested on: A549 cells (human lung cancer cells); test: in vitro antitumor activity test, A549 cells, XTT colorimetry; assay type: cell-based; details: cultured 72 hours
Method in brief: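 Cells seeded at 2×10^4 cells/ml in MEM + 10% FBS, 25 mM HEPES, kanamycin, allowed to adhere 24 h, then exposed to compounds (DMSO stocks diluted in RPMI 1640; prepared at 2.0×10^−9 to 2.0×10^−4 M) for 72 h at 37 °C, 5% CO2. Growth inhibition read by XTT colorimetry; GI50 (μM) calculated.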

[2] = tested on: WiDr cells (human colon cancer cells); test: in vitro antitumor activity test, WiDr cells, XTT colorimetry; assay type: cell-based; details: cultured 72 hours
Method in brief: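 Human colon cancer cells in MEM/10% FBS were seeded 3×10^4 cells/ml and allowed to adhere for 24 h, then exposed to compounds prepared at 2.0×10^−9 to 2.0×10^−4 M in RPMI 1640 for 72 h at 37° C, 5% CO2. Growth was read by XTT colorimetry and GI50 (μM) calculated.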

[3] = tested on: PC-3 cells (human prostate cancer cells); test: in vitro antitumor activity test, PC-3 cells, XTT colorimetry; assay type: cell-based; details: PC-3 human prostate cancer cells, cultured 72 hours
Method in brief: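 PC-3 human prostate cancer cells, seeded at 2×10^4 cells/ml and allowed to adhere for 24 h, were exposed 72 h at 37° C, 5% CO2 to compound diluted in RPMI 1640 with 10% FBS to 2.0×10^−9 to 2.0×10^−4 M (pre-addition solutions). Growth was measured by XTT colorimetry and GI50 (μM) calculated.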

[4] = tested on: B16F10 cells (mouse melanoma [malignant melanoma] cells); test: in vitro antitumor activity test, B16F10 cells, XTT colorimetry; assay type: cell-based; details: B16-F10, cultured 72 hours
Method in brief: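 B16F10 mouse melanoma cells were seeded from a 1×10^4 cells/ml suspension and allowed to adhere for 24 h. Compounds in DMSO were diluted in RPMI 1640 with 10% FBS to 2.0×10^−9 to 2.0×10^−4 M and incubated 72 h at 37° C, 5% CO2. XTT colorimetry gave GI50 (μM).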

[5] = tested on: P388 cells (mouse leukemia cells); test: in vitro antitumor activity test, P388 cells, XTT colorimetry; assay type: cell-based; details: cultured 72 hours
Method in brief: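 Cells from DBA/2 mouse ascites, in RPMI 1640 with 10% FBS and 25 mM HEPES, seeded from a 4×10^4 cells/ml suspension. Equal volume added of compound solutions prepared at 2.0×10^−9 to 2.0×10^−4 M (pre-mixing). After 72 h at 37° C, 5% CO2, growth read by XTT; GI50 (μM) is the concentration giving 50% growth inhibition.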

human lung cancer A549 = test: in vivo antitumor activity, nude mice transplanted with human lung cancer A549; set-up: species or system BALB/c-nu/nu mice; details: 400 mg/kg intraperitoneally daily day 0 to day 13 (12 times), tumor volume at day 14
Description: Tumor tissue fragments of human lung cancer A549 (3 mm×3 mm×3 mm) were transplanted subcutaneously into the chests of six-week-old female BALB/c-nu/nu mice, and sample administration started when the tumor volume reached at least approximately 100 mm^3 (day 0). Compound 2 and Compound 7 were suspended in a 1% hydroxypropylcellulose (HPC [L]) solution using an agate mortar. 400 mg/kg of Compound 2 was orally administered daily from day 0 to day 13 (excluding day 3 and day 10, a total of 12 times). 400 mg/kg of Compound 7 was intraperitoneally administered daily from day 0 to day 13 (excluding day 4 and day 11, a total of 12 times). Tumor diameters were measured to calculate tumor volume (½×long diameter×short diameter×short diameter), and the tumor volume after 14 days (at day 14) from the start of sample administration was divided by the tumor volume at the start of the administration to calculate relative tumor growth rate. The percentage of the relative tumor growth rate of the control group with respect to the relative tumor growth rate of the group administered with Compound 2 or Compound 7 was taken as T/C (%).

[6] = tested on: MCF-7 cells (human breast cancer cells); test: antitumor activity against breast cancer cells, cell counting; assay type: cell-based; details: MCF7; MCF-7 human breast cancer cells, cultured 72 hours, cell counter
Description: MCF-7 cells (human breast cancer cells) subcultured in a culture medium composed of a MEM medium added with 10% fetal bovine serum, 25 mM HEPES and 0.1 mg/ml kanamycin under the conditions of 37° C. and 5% carbon dioxide gas were made into single floating cells by treating with trypsin/EDTA, and a single cell suspension of 4×10^4 cells per 1 ml was prepared using the MEM medium (added with 10% fetal bovine serum, 25 mM HEPES and 0.1 mg/ml kanamycin). After dissolving the test substances (Compound 2 and Compound 7) in DMSO, they were diluted with the MEM medium (added with 10% fetal bovine serum, 25 mM HEPES and 0.1 mg/ml kanamycin) and prepared so that the concentrations were 6.4×10^−8 to 2.0×10^−5 M.
0.1 ml of the cell suspension was placed into each well of a 96-well microplate, cultured for 24 hours to allow the cells to adhere to the microplate, then 0.1 ml of the sample solutions were added, and cultured for 72 hours at 37° C. in 5% carbon dioxide gas.
Afterwards, the cells in each well were made single floating cells by treating with trypsin/EDTA, and the number of cells was counted using a cell counter to obtain the growth inhibition rate at various sample concentrations and calculate the concentrations at which growth was inhibited by 50% (GI50 values [μM]).

CCOc1ccc(CSc2nc(N3CCOCC3)c3nc(CC)n(CC)c3n2)cc1F [Compound 117, 8,9-diethyl-2-(4-ethoxy-3-fluorobenzylsulfanyl)-6-morpholino-9H-purine] was tested, and the GI50 [1] was 430 nM, the GI50 [2] was 290 nM and the GI50 [3] was 310 nM. For the same compound, the GI50 [4] was 370 nM and the GI50 [5] was 300 nM.

For COc1ccc(CSc2nc(N3C=COCC3)c3ncn(C)c3n2)cc1 [Compound 147, 6-(2,3-dihydro-[1,4]oxadin-4-yl)-2-(4-methoxybenzylsulfanyl)-9-methyl-9H-purine], the GI50 [1] was 50 nM, the GI50 [2] was 40 nM and the GI50 [3] was 120 nM. It also gave a GI50 [4] of 80 nM and a GI50 [5] of 40 nM.

CCOc1ccc(CSc2nc(N3CCOCC3)c3nc(CC)n(C)c3n2)cc1 [Compound 17, 2-(4-ethoxybenzylsulfanyl)-8-ethyl-9-methyl-6-morpholino-9H-purine] was tested, and the GI50 [1] was 760 nM, the GI50 [2] was 510 nM and the GI50 [3] was 460 nM. For the same compound, the GI50 [4] was 1290 nM and the GI50 [5] was 360 nM.

CCc1nc2c(N3CCN(N=O)CC3)nc(SCc3ccc(OC)cc3)nc2n1C [Compound 7, 8-ethyl-2-(4-methoxybenzylsulfanyl)-9-methyl-6-(4-nitrosopiperazin-1-yl)-9H-purine] gave a GI50 [1] of 130 nM, a GI50 [2] of 250 nM and a T/C (human lung cancer A549) of 55.4%. For the same compound, the GI50 [3] was 140 nM, the GI50 [4] was 340 nM and the GI50 [5] was 120 nM. It also gave a GI50 [6] of 130 nM.

Work on CCc1nc2c(N3CCOCC3)nc(SCc3ccc(OC)c(NC(=O)CN)c3)nc2n1C [Compound 28, 2-[3-(2-aminoacetylamino)-4-methoxybenzylsulfanyl]-8-ethyl-9-methyl-6-morpholino-9H-purine hydrochloride] yielded a GI50 [1] of 900 nM, a GI50 [2] of 1200 nM and a GI50 [3] of 990 nM. For the same compound, the GI50 [4] was 1140 nM and the GI50 [5] was 810 nM.

Work on CCc1nc2c(N3CCOCC3)nc(SCc3ccc(OC)c(NC(C)=O)c3)nc2n1C [Compound 27, 2-(3-acetylamino-4-methoxybenzylsulfanyl)-8-ethyl-9-methyl-6-morpholino-9H-purine] yielded a GI50 [1] of 580 nM, a GI50 [2] of 920 nM and a GI50 [3] of 650 nM. The GI50 [4] was 1340 nM and the GI50 [5] was 670 nM.

For COc1ccc(CSc2nc(N3CC=CC3)c3ncn(C)c3n2)cc1[N+](=O)[O-] [Compound 142, 2-(4-methoxy-3-nitrobenzylsulfanyl)-9-methyl-6-(3-pyrrolin-1-yl)-9H-purine], the GI50 [1] was 80 nM, the GI50 [2] was 1150 nM and the GI50 [3] was 100 nM. The GI50 [4] was 190 nM and the GI50 [5] was 50 nM.

CCc1ccc(CSc2nc(N3CCOCC3)c3nc(CC)n(C)c3n2)cc1 [Compound 12, 8-ethyl-2-(4-ethylbenzylsulfanyl)-9-methyl-6-morpholino-9H-purine] gave a GI50 [1] of 1890 nM, a GI50 [2] of 1240 nM and a GI50 [3] of 850 nM. For the same compound, the GI50 [4] was 3910 nM and the GI50 [5] was 1250 nM.

COc1ccc(CSc2nc(N(C)OC)c3ncn(C)c3n2)cc1F [Compound 137, 2-(3-fluoro-4-methoxybenzylsulfanyl)-6-(N-methoxy-N-methylamino)-9-methyl-9H-purine] was tested, and the GI50 [1] was 50 nM, the GI50 [2] was 70 nM and the GI50 [3] was 60 nM. The GI50 [4] was 100 nM and the GI50 [5] was 60 nM.

In the case of CCNc1nc(SCc2ccc(OC)c(C#N)c2)nc2c1ncn2C [Compound 89, 2-(3-cyano-4-methoxybenzylsulfanyl)-6-ethylamino-9-methyl-9H-purine], the GI50 [1] is reported as 150 nM, the GI50 [2] is reported as 120 nM and the GI50 [3] is reported as 210 nM. It also gave a GI50 [4] of 130 nM and a GI50 [5] of 110 nM.

In the case of CNc1nc(SCc2ccc(OC)c(C#N)c2)nc2c1ncn2C [Compound 72, 2-(3-cyano-4-methoxybenzylsulfanyl)-6-methylamino-9-methyl-9H-purine], the GI50 [1] is reported as < 40 nM, the GI50 [2] is reported as < 40 nM and the GI50 [3] is reported as < 40 nM. For the same compound, the GI50 [4] was < 40 nM and the GI50 [5] was < 40 nM.

CCc1ccc(CSc2nc(N3CCOCC3)c3nc(CC)n(C)c3n2)cc1N [Compound 90, 2-(3-amino-4-ethylbenzylsulfanyl)-8-ethyl-9-methyl-6-morpholino-9H-purine] gave a GI50 [1] of 720 nM, a GI50 [2] of 1370 nM and a GI50 [3] of 1730 nM. It also gave a GI50 [4] of 1100 nM and a GI50 [5] of 520 nM.

COc1ccc(CSc2nc(N3C=COCC3)c3ncn(C)c3n2)cc1C#N [Compound 153, 2-(3-cyano-4-methoxybenzylsulfanyl)-6-(2,3-dihydro-[1,4]oxadin-4-yl)-9-methyl-9H-purine] was tested, and the GI50 [1] was < 40 nM, the GI50 [2] was < 40 nM and the GI50 [3] was < 40 nM. For the same compound, the GI50 [4] was < 40 nM and the GI50 [5] was < 40 nM.

Sc1ncnc2nc[nH]c12 [Compound A, 6-mercaptopurine, reference compound] was tested, and the GI50 [1] was > 100000 nM, the GI50 [2] was 70000 nM and the GI50 [3] was > 100000 nM. It also gave a GI50 [4] of 22600 nM and a GI50 [5] of 22500 nM.

Compound COc1ccc(CSc2nc(N3C=COCC3)c3ncn(C)c3n2)cc1[N+](=O)[O-] [Compound 149, 6-(2,3-dihydro-[1,4]oxadin-4-yl)-2-(4-methoxy-3-nitrobenzylsulfanyl)-9-methyl-9H-purine] has a GI50 [1] of 470 nM, a GI50 [2] of 350 nM and a GI50 [3] of 530 nM. The GI50 [4] was 1380 nM and the GI50 [5] was 490 nM.

With CCc1nc2c(N(C)C)nc(SCc3ccc(OC)c(F)c3)nc2n1C [Compound 71, 6-dimethylamino-8-ethyl-2-(3-fluoro-4-methoxybenzylsulfanyl)-9-methyl-9H-purine] the GI50 [1] was 100 nM, the GI50 [2] was 80 nM and the GI50 [3] was 50 nM. It also gave a GI50 [4] of 110 nM and a GI50 [5] of 80 nM.
